{
  "source": "patent US20130137757A1",
  "about": "(priority 2010, published 2013)",
  "key": {"[1]": {"system": "influenza viruses A/PR/8/34 (H1N1 type) strain", "experiment": "hemagglutination inhibition test", "type": "cell-based, influenza virus", "settings": "guinea pig red blood cell suspensions, A/PR/8/34 (H1N1) strain, in PBS"}, "[2]": {"system": "influenza viruses A/Memphis/1/71 (H3N2 type) strain", "experiment": "hemagglutination inhibition test", "type": "cell-based, influenza virus", "settings": "guinea pig red blood cell suspensions, A/Memphis/1/71 (H3N2) strain, in PBS"}},
  "data": [
    {"substance": "deoxyribonucleic acid [DNA]", "values": [
      {"measurement": "hemagglutination (visual and microscopic observation)", "setting": "[1]", "result": "strong hemagglutination was observed"},
      {"measurement": "hemagglutination (visual and microscopic observation)", "setting": "[2]", "result": "strong hemagglutination was observed"}
    ]}
  ]
}
